Consider 1 molecule from patent US6369089B1, “Interheteroaryl 7-oxabicyclic [2.2.1]heptane oxazoles as prostaglandin F2α antagonists” (Allergan Sales, Inc., priority 2000, dated 2002).

This experiment addresses T1, human FP receptor (Homo sapiens, UniProt P43088).
T1 construct: expressed in transfected cells
Nature of the experiment: Ca2+ signaling, antagonism of 17-phenyl PGF2α response in HEK cells stably transfected with the human FP receptor. Type of experiment: cell-based. As for the experimental part:
HEK cells stably transfected with the human FP receptor were removed from the culture flasks by approximately 1 min treatment with trypsin 0.05%/0.53 mM EDTA in HBSS (Gibco, Grand Island, N.Y.) at 37° C. Proteolytic activity was arrested by adding 5 ml of 10% fetal bovine serum in DMEM. The cells were consecutively washed in Hank's BSS and medium containing 140 mM NaCl, […], 1 mM MgCl2, 1.5 mM CaCl2, 10 mM HEPES: TRIS, 5 mM glucose, 5 mM Na pyruvate, 0.1% bovine serum albumin at pH 7.4: centrifugation for the washes was performed for 15 minutes at 200 g at room temperature. Cells were counted, resuspended in the above medium and incubated with 2×10^−6 M Fura 2/acetoxymethyl ester in a shaking water bath for 30 minutes at 37° C. The cells were subsequently washed in medium as above and resuspended at a concentration of 2×10^6 cells ml^−1. Aliquots of 0.5 ml cell suspension were then added to autocap microtubes to provide 10^6 cells per experimental determination of intracellular free Ca^2+ concentration ([Ca^2+]i).
Fluorescence was measured in a Perkin-Elmer LS-5 fluorescence spectrophotometer at excitation and emission wavelengths of 340 and 492 nm, respectively, with both slits at 10 nm. […]

T1 sequence (P43088 whole entry): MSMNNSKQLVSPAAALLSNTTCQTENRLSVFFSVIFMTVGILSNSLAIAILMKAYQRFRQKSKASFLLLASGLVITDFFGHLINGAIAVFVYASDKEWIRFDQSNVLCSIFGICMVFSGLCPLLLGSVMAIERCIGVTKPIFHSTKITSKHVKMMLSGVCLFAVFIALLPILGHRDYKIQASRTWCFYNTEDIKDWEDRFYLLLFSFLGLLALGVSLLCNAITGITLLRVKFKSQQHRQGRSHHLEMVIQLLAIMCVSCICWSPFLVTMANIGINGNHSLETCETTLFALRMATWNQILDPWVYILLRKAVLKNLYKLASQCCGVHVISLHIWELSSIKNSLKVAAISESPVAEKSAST

Consider `COC(=O)CCc1ccccc1CC1C2CCC(O2)C1c1nc(C(=O)NCCCCC2CCCCC2)co1` (stereo not shown), for which the “PGF2α antagonist activity (comparison in words)” value is “much less active than the corresponding acid”.
